{"source": "paper PMC11170711", "about": "“Pharmacophore Virtual Screening Identifies Riboflavin as an Inhibitor of the Schistosome Cathepsin B1 Protease with Antiparasitic Activity” (ACS Omega, 2024)", "target": "T1, human cathepsin B (Homo sapiens, UniProt P07858)", "T1 construct": "gene CTSB", "assay": "fluorogenic Z-RR-AMC hydrolysis assay with recombinant enzyme, without and with […] Triton X-[…] with detergent", "format": "biochemical"}
{"smiles": "Cc1cc2nc3c(=O)[nH]c(=O)nc-3n(C[C@H](O)[C@H](O)[C@H](O)CO)c2cc1C", "note": "[RBF, riboflavin]", "values": [{"measurement": "IC50", "value": "12.1 ± 1.86", "unit": "µM"}]}
